Entries after “also recorded” stand apart in the source; their conditions may differ.
What was measured:
[1] = test system: deltorphin II transport system in control ARPE-19 cells; assay: Inhibition of [^3H]deltorphin II uptake in control ARPE-19 cells; format: cell-based, human; conditions: [^3H]deltorphin II 50 nM, 30 minutes, NaCl, peptide/antagonist 1 mM
Text: (§1) Stable transfection of ARPE-19 cells with pcDNA-Tat cDNA. The pGEM2-Tat cDNA construct contained as the insert a 295 basepair (bp) fragment encoding the first exon of HIV-1 Tat gene joined to a 145 bp pET3A transcription terminator. The entire insert (440 bp) was removed from the construct by digestion with PstI and EcoRI and ligated into the multiple cloning region of pcDNA3.1 (−) vector at PstI/EcoRI site so that the insert is downstream of the cytomegalovirus (CMV) promoter. The resultant construct was sequenced to confirm the orientation of the insert. This construct was electroporated into ARPE-19 cells and the stably transfected cell clones were isolated in the presence of Geneticin (G418). To serve as a control, empty pcDNA3.1 vector was electroporated into ARPE-19 cells in an identical manner and the clones harboring the vector were selected by G418 resistance.
(§2) Uptake measurements in control ARPE-19 cells and Tat-ARPE-19 cells. Control ARPE-19 cells and Tat-ARPE-19 cells were maintained in 75-cm^2 culture flasks in Dulbecco's modified Eagle's medium/F12 medium (1:1, volume/volume (v/v)) in the presence of fetal bovine serum (10%) and G418 (100 μg/ml). For uptake measurements, cells were released by trypsin treatment and seeded in 24-well culture plates at an initial density of 0.1×10^6 cells/well. The culture medium was replaced with fresh medium on the second day following the initial seeding and uptake measurements were made on the third day. […] After incubation at 37° C. for a desired time, uptake was terminated by the removal of the medium and washing of the cells with ice-cold uptake buffer. The cells were then dissolved in 1% SDS in 0.2 M NaOH and used for measurement of radioactivity. The uptake buffer in most experiments was 25 mM Hepes/Tris (pH 7.5), containing 140 mM NaCl, 5.4 mM KCl, 1.8 mM CaCl2, 0.8 mM MgSO4 and 5 mM glucose.
(§3) Substrate specificity of the deltorphin transport system. […] These peptides consisted of 4-13 amino acids.

[2] = test system: deltorphin II transport system in Tat-ARPE-19 cells; assay: Inhibition of [^3H]deltorphin II uptake in Tat-ARPE-19 cells; format: cell-based, human; conditions: Tat-ARPE-19 cells, [^3H]deltorphin II 50 nM, 30 minutes, NaCl, inhibitor 1 mM
Text: as §1, §2
When the influence of Na^+ on the uptake process was investigated, the concentration of NaCl in the uptake buffer was adjusted, as desired, by isoosmotically replacing NaCl with N-methyl-D-glucamine chloride. To assess the influence of Cl^− on the uptake process, the composition of the uptake medium was modified by replacing KCl and CaCl2 with equimolar concentrations of potassium gluconate and calcium gluconate and the concentration of NaCl was adjusted, as desired, by iso-osmotically replacing NaCl with sodium gluconate. Saturation kinetics were analysed by fitting the data to the Michaelis-Menten equation. The Michaelis-Menten constant, Kt, was calculated by non-linear regression analysis and then confirmed by linear regression. Na^+- and Cl^−-activation kinetics were analyzed by fitting the data to the Hill equation and the Hill coefficients for Na^+ and Cl^− (h; the number of Na^+ and Cl^− ions involved in the activation process) and the K0.5 values (the concentration of Na^+ and Cl^−-needed for half-maximal activation) were determined from the analysis. Again, these constants were first calculated by non-linear regression methods and subsequently confirmed by linear regression methods. Experiments were repeated three times in duplicate and the results are given as means±S.E.M.
as §3
Relative affinities of endogenous opioid peptides for the transport system.

[3] = test system: deltorphin II uptake inducible by rMC-1 mRNA in X. laevis oocytes; assay: Deltorphin II uptake in X. laevis oocytes injected with rMC-1 mRNA; format: cell-based, rat; conditions: X. laevis oocytes injected with rMC-1 poly(A)+ mRNA, deltorphin II 125 nM
Method: Therefore, functional expression of the deltorphin II transport system in X. laevis oocytes will be used to clone this transport system. […] Poly(A)+ mRNA was prepared from this cell line for functional expression studies in X. laevis oocytes.

[4] = test system: opioid peptide transport system in rMC-1 cells; assay: Opioid peptide transport in rMC-1 cells; format: cell-based, rat
[5] = test system: enkephalin/endorphin transport system in SK—N—SH cells; assay: [^3H]deltorphin II uptake in SK—N—SH cells, effect of peptides and amino acids; format: cell-based, human; conditions: for influence on kinetics of deltorphin II uptake / type of inhibition: 250 μM L-Lysine; for effect on [^3H]deltorphin II uptake (in words): test substance 1 mM
Method: as §2
Since enkephalins and endorphins are relevant to pain perception and to further provide evidence in support of a role for the transport system in opioidergic neurotransmission, the human neuronal cell line SK—N—SH was tested for expression of the transport system. […] Unless otherwise specified, procedures are as detailed in Example 1.
The concentration of enkephalins and dynorphins was 1 mM.
Finally, the relative affinity of various enkephalins and dynorphins for the transport system in SK—N—SH cells was determined.
To the further characterize the opioid transport of the present invention, various specific peptides that act as positive modulators of the enkephalin/endorphin transport system in the human neuronal cell line SK—N—SH were identified. Unless otherwise specified, procedures are as detailed in Example 1. […] Uptake was measured in the presence of NaCl for 30 minutes. The concentration of the dipeptides was 1 mM.
Uptake was measured in the presence of NaCl for 30 minutes. The concentration of the tripeptides was 1 mM.
Unless otherwise specified, procedures are as described in more detail in Example 1.
The dose-response relationship for the inhibition of the enkephalin/endorphin transport system by L-Lysine and its methyl and ethyl esters is shown in FIG. 15.

SK—N—SH cells = assay: L-lysine uptake in SK—N—SH cells; format: cell-based, human
Method: Whether or not L-lysine is a transportable substrate for the opioid peptide transport system was tested. For this, uptake of L-lysine was studied and the influence of Na^+ and opioid peptides assessed in SK—N—SH cells.

Compound: YGGFLRRQF [Dynorphin B (1-9)]
- [^3H] Deltorphin II uptake ([1]; control ARPE-19 cells (pcDNA vector alone)): 0.06 ± 0.000 pmol/mg protein/30 min
- [^3H] Deltorphin II uptake (%) of control ([1]; control ARPE-19 cells, control = 100): 5%
- [^3H] Deltorphin II uptake [2]: 0.08 ± 0.01 pmol/mg protein/30 min
- [^3H] Deltorphin II uptake (%) of control ([2]; control = 100): 1%
- inhibition of mRNA-induced deltorphin II uptake (in words) ([3]; listed as dynorphin B 1-9): completely inhibitable
- inhibition of mRNA-induced deltorphin II uptake (in words) ([3]; listed as dynorphin B1-9): completely inhibited

Compound: NCCCC[C@H](N)C(=O)O [L-Lys, L-lysine]
- interaction with the opioid peptide transport system (in words) [4]: inhibited; also recorded: not a transportable substrate but a blocker
- interaction with the opioid peptide transport system (in words, summary of Examples) [5]: inhibited; also recorded: not a transportable substrate but a blocker
- influence on kinetics of deltorphin II uptake / type of inhibition ([5]; listed as L-Lysine): decreased the maximal velocity of the transport system without affecting the affinity for deltorphin II; also recorded: decreasing the maximal velocity without affecting the substrate affinity
- influence on kinetics of deltorphin II uptake / type of inhibition ([5]; listed as L-lysine): non-competitive
- Deltorphin II uptake ([5]; [^3H]deltorphin II 25 nM, NaCl, 30 minutes, compound 1 mM): 0.26 ± 0.01 pmol/30 min/mg protein
- effect on [^3H]deltorphin II uptake (in words) ([5]; [^3H]deltorphin II 25 nM, NaCl, 30 minutes, listed as L-Lysine): significant inhibition; also recorded: most potent inhibitors
- effect on [^3H]deltorphin II uptake (in words) ([5]; [^3H]deltorphin II 25 nM, NaCl, 30 minutes, listed as L-lysine): greatest inhibition; also recorded: inhibit the uptake to a marked extent
- Ki ([5]; read-out: Ki for inhibition of deltorphin II uptake, dose-response studies): 160 ± 19 µM
- L-lysine uptake: influence of Na^+ and opioid peptides; transportable substrate or not (SK—N—SH cells): not Na^+-dependent and is insensitive to opioid peptides; also recorded: not a transportable substrate

Compound: C[C@]12CC[C@@H]3c4ccc(OS(=O)(=O)O)cc4CC[C@H]3[C@@H]1CCC2=O [estrone-3-sulfate]
- inhibition of mRNA-induced deltorphin II uptake (in words) [3]: only a slight inhibition; also recorded: only slightly inhibited

From patent US20060019241A1, “Na+ and CI-coupled transport system for endogenous opioid peptides” (priority 2004, published 2006)
